Measured values from patent publication US20150004134A1, “TREATMENT OF CANCER WITH HETEROCYCLIC INHIBITORS OF GLUTAMINASE” (Calithera Biosciences, Inc., priority 2012, published 2015).
Where two headings read alike, the source gives them in different places.

Assays:
Caco-2 cell monolayers = assay: Caco-2 Permeability Assay; assay type: in vitro ADME; conditions: for Permeability Classification: absorption potential
Description: Caco-2 cells are commonly used in a confluent monolayer on a cell culture insert filter. When cultured in this format and under specific conditions, the cells become differentiated and polarized such that their phenotype, morphologically and functionally resembles the enterocytes lining the small intestine. The cell monolayer provides a physical and biochemical barrier to the passage of small molecules, and is widely used across the pharmaceutical industry as an in vitro model of the human small intestinal mucosa to predict the absorption of orally administered drugs (Hidalgo et al., Gastroenterology, 1989; Artursson, J. Pharm. Sci., 1990). The correlation between the in vitro apparent permeability (P ? app) across Caco-2 monolayers and the in vivo absorption is well established (Artursson et al., Biochem. Biophys. Res. Comm., 1991).
The present assay was used to determine the bidirectional permeability of the compounds of the invention through Caco-2 cell monolayers. Caco-2 cells were grown in confluent monolayers where the media of both the apical (A) and basolateral (B) sides were at pH 7.4. Compounds were dosed at 1 μM in the presence of 200 μM Lucifer Yellow, on the apical side (A→B) or the basolateral side (B→A) for assessment, in duplicate.
The absorption potential of compounds were classified as either Low (P-app <1×10^−6 CM/S) or High (P-app >1×10^−6 CM/S).

[1] = biological target: T1, recombinant form of Glutaminase 1 (GAC) (Homo sapiens, UniProt O94925); assay: Recombinant Enzyme Assay - Time Dependence (60 min preincubation); assay type: biochemical; conditions: read-out: GAC Delta N2 IC50 60 min preinc
T1 sequence (O94925 137-598 isoform O94925-3 limits assumed): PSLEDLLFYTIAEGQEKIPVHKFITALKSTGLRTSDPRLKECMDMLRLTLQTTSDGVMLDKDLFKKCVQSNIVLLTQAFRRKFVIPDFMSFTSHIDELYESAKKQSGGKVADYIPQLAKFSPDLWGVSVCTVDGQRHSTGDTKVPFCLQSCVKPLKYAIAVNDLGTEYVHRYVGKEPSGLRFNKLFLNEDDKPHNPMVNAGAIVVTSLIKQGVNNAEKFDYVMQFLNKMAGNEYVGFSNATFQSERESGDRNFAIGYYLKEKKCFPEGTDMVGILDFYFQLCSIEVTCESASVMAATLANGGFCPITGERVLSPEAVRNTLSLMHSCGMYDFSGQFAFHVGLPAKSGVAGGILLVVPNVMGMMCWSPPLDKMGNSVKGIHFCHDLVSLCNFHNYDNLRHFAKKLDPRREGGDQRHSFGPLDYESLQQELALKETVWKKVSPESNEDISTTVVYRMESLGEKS
Method in brief: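 Enzyme and compound preincubated 60 min at 20° C; reaction started with substrate buffer (50 mM Tris-HCl pH 8.0, 150 mM K2HPO4, 1 mM DTT, 20 mM L-glutamine, 2 mM NAD^+). NADH formation followed at 340 nm in kinetic mode for 15 min at 20° C; slopes (mAU/min) compared with DMSO and control-compound wells.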

P493-6 (myc "on") cells = assay: Cell Proliferation Assay; assay type: cell-based; conditions: P493-6, 72 h
Method in brief: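 Read-out: either Cell Titer Glo or Guava Viacount flow analysis after 72 h compound treatment of myc-on P493-6 cells (10,000/well, RPMI with 10% FBS) at 37 °C. DMSO held at 0.5% final.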

[2] = biological target: T1, recombinant form of Glutaminase 1 (GAC); assay: Recombinant Enzyme Assay (no preincubation); assay type: biochemical; conditions: read-out: GAC Delta N2 IC50 no preinc;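 also: GDH-coupled GAC activity read as absorbance at 340 nm in kinetic mode over 15 min at 20 °C, slopes compared with a DMSO-only control, lower slope means inhibition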
Description: Compounds were assessed for their ability to inhibit the enzymatic activity of a recombinant form of Glutaminase 1 (GAC) using a biochemical assay that couples the production of glutamate (liberated by GAC) to glutamate dehydrogenase (GDH) and measuring the change in absorbance for the reduction of NAD^+ to NADH. […] Enzymatic reaction was started with the addition of 50 μL of enzyme solution (50 mM Tris-HCl pH 8.0, 0.2 mM EDTA, 150 mM K2HPO4, 0.1 mg/ml BSA, 1 mM DTT, 10 ppm antifoam, 4 units/ml GDH, 4 mM adenosine diphosphate, and 4 nM GAC) and read in a Molecular Devices M5 plate reader at 20° C. The plate reader was configured to read absorbance (λ=340 nm) in kinetic mode for 15 minutes. Data was recorded as milli-absorbance units per minute and slopes were compared to a control compound and a DMSO-only control on the same plate. Compounds with slopes less than the DMSO control were considered inhibitors and plate variability was assessed using the control compound.

[3] = read-out: Cell prolif P493 72 h IC50, P493 cells, 72 h
[4] = read-out: Cell prolif P493 72 h IC50, P493-6 cells, 72 h

SMILES | Significant Efflux (Caco-2 cell monolayers) | Permeability Classification (Caco-2 cell monolayers) | IC50 [1] [nM] | IC50 (P493-6 (myc "on") cells; [3]) [nM] | IC50 [2] [nM] | IC50 (P493-6 (myc "on") cells; [4]) [nM]
CC(C(=O)Nc1ccc(CCCCc2nnc(NC(=O)Cc3cccc(CNC(=O)OC(C)(C)C)c3)s2)nn1)c1ccccc1 (stereo not shown) [Compound 436] | Yes (efflux ratios being significant when greater than or equal to 3 when the Papp (B→A) was greater than or equal to 1×10^−6 cm/s) | High (High (P-app >1×10^−6 CM/S)) |  |  |  | 
O=C(Nc1nnc(CCCCc2nnc(NC(=O)C(CO)c3ccccc3)s2)s1)C(CO)c1ccccc1 (stereo not shown) [Compound 36, N,N′-[5,5′-(butane-1,4-diyl)-bis(1,3,4-thiadiazole-5,2-diyl)]-bis(3-hydroxy-2-phenylpropanamide)] |  |  | 40 | 160 | 220 | 
O=C(Cc1cccc(OC(F)(F)F)c1)Nc1ccc(CCCCc2nnc(NC(=O)[C@@H](O)c3ccccc3)s2)nn1 [Compound 703] | Yes (efflux ratios being significant when greater than or equal to 3 when the Papp (B→A) was greater than or equal to 1×10^−6 cm/s) | High (High (P-app >1×10^−6 CM/S)) |  |  |  | 
O=C(O)Cc1cccc(CC(=O)Nc2nnc(CCCCc3nnc(NC(=O)Cc4cccc(CC(=O)O)c4)s3)s2)c1 [Compound 313] |  |  |  | 94000 | 270 | 
O=C(Cc1cccc(OCCO)c1)Nc1nnc(CCCCc2nnc(NC(=O)Cc3cccc(OCCO)c3)s2)s1 [Compound 235] |  |  |  | 210 | 110 | 
O=C(Cc1ccccc1)Nc1ccc(CCCCc2nnc(NC(=O)Cc3ccc(O)c(Cl)c3)s2)nn1 [Compound 336] |  |  |  | 52 | 68 | 
O=C(Cc1ccccn1)Nc1ccc(CCCCc2nnc(NC(=O)Cc3ccccc3)s2)nn1 [Compound 383] |  |  |  | 22 | 86 | 
O=C(Cc1ccccc1)Nc1nnc(CCCCc2ccc(NC(=O)C(O)c3ccccc3)nn2)s1 (stereo not shown) [Compound 364] |  |  | 30 | 260 | 150 | 
Cc1nccn1Cc1cccc(CC(=O)Nc2nnc(CCCCc3ccc(NC(=O)Cc4ccccc4)nn3)s2)c1 [Compound 380] |  |  |  | 19 | 120 | 
O=C(Nc1nnc(CCSCc2nnc(NC(=O)[C@@H](O)c3ccccc3)s2)s1)[C@@H](O)c1ccccc1 [Compound 242] |  |  |  | 220 | 360 | 
O=C(Cc1ccccc1)Nc1ccc(CCCCc2nnc(NC(=O)C(CO)c3ccccc3)s2)nn1 (stereo not shown) [Compound 314] |  |  |  | 48 | 140 | 
O=C(Cc1cccc2cnccc12)Nc1nnc(CCCCc2nnc(NC(=O)Cc3cccc4cnccc34)s2)s1 [Compound 639] |  |  |  |  | 170 | 23000
CC(C)(C)OC(=O)NCc1cccc(CC(=O)Nc2nnc(CCCCc3nnc(NC(=O)Cc4ccccc4)s3)s2)c1 [Compound 375] |  |  | 5 | 41 | 380 | 
O=C(Cc1cccc(OCCN2CCOCC2)c1)Nc1nnc(CCCCc2nnc(NC(=O)Cc3cccc(OCCN4CCOCC4)c3)s2)s1 [Compound 241] |  |  |  | 870 | 380 | 
COc1cccc(CC(=O)Nc2nnc(CCSCCc3nnc(NC(=O)Cc4ccccn4)s3)s2)c1 [Compound 360] |  |  |  | 670 | 280 | 
Nc1ccc(CCCCc2nnc(NC(=O)Cc3cccc(OCc4ccccc4)c3)s2)nn1 [Compound 385] |  |  |  | 720 | 260 | 
O=C(Cc1ccccc1)Nc1nnc(CCCCc2ccc(NC(=O)C(O)c3cccc(Cl)c3)nn2)s1 (stereo not shown) [Compound 365] |  |  | 9 | 89 | 92 | 
CCOC(=O)NCc1cccc(CC(=O)Nc2ccc(CCCCc3nnc(NC(=O)Cc4ccccc4)s3)nn2)c1 [Compound 384] |  |  | 3 | 5 | 81 | 
NCc1cccc(CC(=O)Nc2nnc(CCCCc3nnc(NC(=O)Cc4cccc(CN)c4)s3)s2)c1 [Compound 325] |  |  | 170 | 30 | 660 | 
CCOC(=O)NCc1cccc(CC(=O)Nc2nnc(CCCCc3ccc(NC(=O)Cc4ccccc4)nn3)s2)c1 [Compound 382] |  |  | 3 | 7 | 99 | 
C=C(C(=O)Nc1nnc(CCCCc2nnc(NC(=O)C(OCC(=O)CCN3CCOCC3)c3ccccc3)s2)s1)c1ccccc1 (stereo not shown) [Compound 281] |  |  |  | 660 | 740 | 
O=C(Cc1cccc2[nH]ncc12)Nc1nnc(CCCCc2nnc(NC(=O)Cc3cccc4[nH]ncc34)s2)s1 [Compound 640] |  |  |  |  | 120 | 70

SMILES | Significant Efflux (Caco-2 cell monolayers) | Permeability Classification (Caco-2 cell monolayers) | IC50 [1] [nM] | IC50 (P493-6 (myc "on") cells; [3]) [nM] | IC50 [2] [nM] | IC50 (P493-6 (myc "on") cells; [4]) [nM]
COc1cccc(CC(=O)Nc2ccc(CCCCc3nnc(NC(=O)Cc4ccccc4)s3)nn2)c1 [Compound 366] |  |  |  | 24 | 74 | 
CC(C)(C)OC(=O)NCc1cccc(CC(=O)Nc2nnc(CCCCc3nnc(NC(=O)Cc4cccc(CNC(=O)OC(C)(C)C)c4)s3)s2)c1 [Compound 324] |  |  |  | 100 | 4600 | 
O=C(Cc1ccccc1)Nc1ccc(CCCCc2nnc(NC(=O)[C@H](O)c3cccc(Cl)c3)s2)nn1 [Compound 340] |  |  |  | 38 | 96 | 
O=C(Cc1ccccc1)Nc1nnc(CCSCCc2nnc(NC(=O)C(CO)c3ccccc3)s2)s1 (stereo not shown) [Compound 29] |  |  |  | 4100 | 560 | 
O=C(Nc1nnc(CCSCCc2nnc(NC(=O)C3COc4ccccc43)s2)s1)C1COc2ccccc21 (stereo not shown) [Compound 133] |  |  |  | 150 | 510 | 
O=C(Nc1nnc(CCSCc2nnc(NC(=O)C(CO)c3ccccc3)s2)s1)C(CO)c1ccccc1 (stereo not shown) [Compound 239] |  |  |  | 300 | 300 | 
O=C(Cc1cccc2ncccc12)Nc1nnc(CCCCc2nnc(NC(=O)Cc3cccc4ncccc34)s2)s1 [Compound 641] |  |  |  |  | 140 | 500
Nc1cccc(CC(=O)Nc2nnc(CCSCCc3nnc(NC(=O)Cc4cccc(N)c4)s3)s2)c1 [Compound 99] |  |  |  | 1000 | 2700 | 
O=C(Cc1ccccc1)Nc1ccc(CCCCc2nnc(NC(=O)Cc3cccc(-n4ccnc4)c3)s2)nn1 [Compound 379] |  |  |  | 38 | 97 | 
O=C(Cc1ccccc1)Nc1ccc(CCCCc2nnc(NC(=O)Cc3cccc(OCc4ccccc4)c3)s2)nn1 [Compound 338] |  |  |  | 43 | 150 | 
O=C(Cc1ccccc1)Nc1ccc(CCCCc2nnc(NC(=O)OCc3ccccc3)s2)nn1 [Compound 386] |  |  |  | 150 | 85 | 
O=C(Cc1ccccc1)Nc1ccc(CCCCc2nnc(NC(=O)Cc3cccnc3)s2)nn1 [Compound 355] |  |  |  | 39 | 100 | 
O=C(Cc1cccc(CN2CCNCC2)c1)Nc1nnc(CCSCc2nnc(NC(=O)Cc3cccc(CN4CCNCC4)c3)s2)s1 [Compound 276] |  |  |  | 56000 | 1500 | 
O=C(Cc1ccccn1)Nc1nnc(CCCCc2nnc(NC(=O)Cc3ccccn3)s2)s1 [Compound 307] |  |  |  | 9300 | 6400 | 
COc1cccc(CC(=O)Nc2nnc(CCCCc3ccc(NC(=O)Cc4ccccc4)nn3)s2)c1 [Compound 353] |  |  |  | 21 | 49 | 
O=C(Cc1ccccc1)Nc1ccc(CCCCc2nnc(NC(=O)Cc3cccc(OCCN4CCOCC4)c3)s2)nn1 [Compound 381] |  |  |  | 18 | 160 | 
COc1cc(CC(=O)Nc2nnc(CCCCc3nnc(NC(=O)Cc4cc(OC)cc(OC)c4)s3)s2)cc(OC)c1 [Compound 205] |  |  |  | 4100 | 380 | 
NCc1cccc(CC(=O)Nc2ccc(CCCCc3nnc(NC(=O)Cc4ccccc4)s3)nn2)c1 [Compound 368] |  |  | 9 | 17 | 110 | 
O=C(Cc1ccccc1)Nc1nnc(CCCCc2nnc(NC(=O)Cc3ccccn3)s2)s1 [Compound 310] |  |  |  | 120 | 83 | 
CCOC(=O)Nc1nnc(CCCCc2nnc(NC(=O)Cc3ccccc3)s2)s1 [Compound 244] |  |  |  | 1700 | 840 | 
COc1cccc(CC(=O)Nc2nnc(CCCCc3nnc(NC(=O)Cc4cccc(OC)c4)s3)s2)c1 [Compound 159] |  |  |  | 50 | 110 | 
